Results from PubChem BioAssay AID1117319 (Southern Research Institute, 2015).
Records with an inconclusive call do not appear.

Target: Virion infectivity factor (Human immunodeficiency virus type 1 group M subtype B (isolate BH10)) + Virion infectivity factor (Human immunodeficiency virus type 1 group M subtype B (isolate BRU/LAI)) + Virion infectivity factor (Human immunodeficiency virus type 1 group M subtype B (isolate PCV12)) + Virion infectivity factor (Human immunodeficiency virus type 1 group M subtype B (isolate HXB2)) + DNA dC->dU-editing enzyme APOBEC-3G (Homo sapiens) (UniProt P69720+P69721+P69722+P69723+Q9HC16)
Experiment: HIV-1 Vif–A3G interaction blockers – biochemical, TR-FRET, GST-Vif 1-94, biotin-A3G peptide, dose response retest, primary screen (AID 1117319);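 further: Vif residues 1-94 fused to GST binding biotinylated APOBEC3G peptide 110-148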
Details: TR-FRET GST-Vif / biotin-A3G peptide binding

| Compound | IC50 [µM] |
| --- | --- |
| COc1ccc(N=C2NC(=O)/C(=C\C=C\c3ccco3)S2)cc1 | 2.2 |
| CC(=O)N1CCN(c2ccc(NCc3ccc(C)s3)cc2)CC1 | 3.13 |
| CC1CCCCC1NC(=O)COC(=O)c1c2c(nc3ccccc13)/C(=C/c1ccco1)CC2 (stereo not given) | 1.33 |
| O=C1c2c(O)ccc(O)c2C(=O)c2c(NCCNCCO)ccc(NCCNCCO)c21 | 7.96 |
| O=[N+]([O-])c1cc(CN2CCCC2)c2cccnc2c1O | 2.48 |
| CCc1cc2cc(C)cc(C)c2nc1SCC(=O)N1CCN(C(=O)c2ccco2)CC1 | 12.6 |
| O=C1CC(Nc2ccc(N3CCOCC3)cc2)C(=O)N1c1ccccc1F (stereo not given) | 1.65 |
| c1ccc2c3c([nH]c2c1)CNCC3 | 84.2 |
| O=C(O)c1c2c(nc3ccc(Cl)cc13)CCC2 | 23.4 |
| Cc1cccc(N/N=C/c2ccc(O)c(O)c2O)c1 | 9.51 |
| O=C1NC(=O)N(c2ccc(Cl)cc2)C(=O)/C1=C\c1ccc(Sc2nc3ccccc3[nH]2)o1 | 11.7 |
| O=[N+]([O-])c1cc2oc3c(c2c(C=NCc2ccncc2)c1O)CCCC3 | 4.52 |
| CNc1ccc(Br)cc(C(=O)/C=C/c2ccc(OC)cc2OC)c1=O | 2.79 |
| Cc1cc(C(=O)CSc2nnnn2-c2ccccc2)c(C)n1CC1CCCO1 (stereo not given) | 9.78 |
| O=C(Nc1ccc(F)cc1F)c1noc2c1CCC2 | 12.8 |
| Cc1cc(C)cc(Nc2ncc3c(n2)CC(c2ccco2)CC3=O)c1 (stereo not given) | 6.84 |
| O=C(O)c1ccc(-n2cccc2/C=C2/NC(=O)N(c3ccccc3)C2=O)cc1 | 3.34 |
| N#Cc1ccccc1CN1C(=O)S/C(=C/c2cccn2-c2cccc(C(=O)O)c2)C1=O | 18.5 |
| Cc1ccc(N2C(=O)NC(=O)/C(=C\C=C\c3ccco3)C2=O)cc1 | 8.48 |
| CCOC(=O)C1CCN(Cc2cnc(Oc3ccc(OC)cc3)s2)CC1 | 80.9 |
| CCOC(=O)c1cnn2c(N)c(C#N)nnc12 | 21.4 |
| COC(Cc1nnc(SC)n1-c1ccc(Cl)cc1)OC | 43 |

| Compound | IC50 [µM] |
| --- | --- |
| CC(C)(C)C1C/C(=C/c2ccco2)C(=O)/C(=C/c2ccco2)C1 (stereo not given) | 2.65 |
| O=C1c2ccccc2C(=O)N1/N=C/c1ccc(O)c(O)c1O | 4.54 |
| C=CCN=c1scc(-c2ccco2)n1/N=C/c1ccc(O)c(O)c1O | 1.38 |
| CC1(C)N([O-])c2cc([N+](=O)[O-])ccc2[N+]1=O | 9.68 |
| CNC(=O)[C@@H]1C[C@H]1[C@@H](NC(=O)OCc1ccccc1)c1ccccc1 | 16.6 |
| CN(CCC#N)C(=O)COC(=O)c1c2c(nc3ccccc13)/C(=C\c1ccco1)CC2 | 1.66 |
| O=c1cc(-c2ccc(O)cc2)oc2cc(O)c(C3OC(CO)C(O)C(O)C3O)c(O)c12 (stereo not given) | 7.05 |
| O=C1N=C(N2CCOCC2)SC1=Cc1ccco1 | 92.5 |
| Nc1ccc(Nc2ccccc2)c(S(=O)(=O)O)c1 | 5.26 |
| O=C(NNC(=O)c1ccccc1F)c1cccc(-n2cccc2)c1 | 8.55 |
| CC(C)C(C(=O)O)N1C(=O)/C(=C/C=C/c2ccco2)SC1=S (stereo not given) | 0.36 |
| CCOc1ccc(CNc2ccc(N3CCCC3)cc2)cc1 | 6.59 |
| CC(=O)Nc1ccc(S(=O)(=O)N2CCN(Cc3ccccn3)CC2)cc1 | 77.4 |
| Cc1cc2c(=Cc3ccc(N(C)C)cc3)c3ccccc3n2[n+]1C | 16.9 |
| CC(N=Cc1cccc(O)c1O)c1ccccc1 (stereo not given) | 2.61 |
| NC(=O)COC(=O)c1ccc(Oc2ccccc2)cc1 | 98.9 |
| CO[C@H]1C=CO[C@@]2(C)Oc3c(C)c(O)c4c(O)c(c(C=NN5CCN(C)CC5)c(O)c4c3C2=O)NC(=O)C(C)=CC=C[C@H](C)[C@H](O)[C@@H](C)[C@@H](O)[C@@H](C)[C@H](OC(C)=O)[C@@H]1C | 7.75 |
| CNc1ccccc(-c2ccc3cc4c(cc3n2)OCO4)c1=O | 16.5 |
| CS(=O)(=O)N(CC(=O)Nc1ccc2c(c1)OCO2)Cc1ccccc1 | 94.7 |
| CCN(CC)C(=O)c1ccc2c(c1)C1C(Cl)C(Sc3ccccc3[N+](=O)[O-])CC1C(C(=O)O)N2 (stereo not given) | 13 |
| CCOC(=O)c1c2c(n(Cc3ccccc3)c1C)C(=O)C(=O)c1ccccc1-2 | 79.5 |
| O=[N+]([O-])c1cc(-c2ccc(/C=N/c3nc4ccccn4c3-c3ccco3)o2)ccc1Cl | 10 |

| Compound | IC50 [µM] |
| --- | --- |
| COc1ccc(NS(=O)(=O)c2cccc(C(=O)NNC(=O)c3cccn3C)c2)cc1 | 12.7 |
| CC1CCC/C(=C\Nc2ccc(O)cc2)C1=O (stereo not given) | 17.2 |
| CC1(OC(=O)C2CCCC2)C(=O)C=C2C=C(c3ccsc3)OC=C2C1=O (stereo not given) | 8.75 |
| CCOc1ccc(CCNC(=O)C2CC(C)=CCC2C(=O)O)cc1OCC (stereo not given) | 56.6 |
| COc1ccc(N2C3=C(CC4=C2CCCC4=O)C(=O)CCC3)cc1 | 26.3 |
| Cc1nc2cc(N=NC3=C(O)CCCC3=O)ccc2s1 | 1.28 |
| O=C(CSc1ccc(Cl)cc1)c1ccco1 | 10.8 |
| CCN(CC)S(=O)(=O)c1ccc(/C=C/C(=O)Nc2ccc(N3CCOCC3)cc2)cc1 | 55.7 |
| Nc1c(C(=O)NC2CC2)sc2nc3c(c(-c4ccco4)c12)CC/C3=C/c1ccco1 | < 0.195 |
| O=C(c1cc(COc2cccc3cccnc23)on1)N1CCC[C@H]1CO | 88.7 |
| O=C(O)C1Nc2c(Cl)cc(Cl)c(Cl)c2C2C=CCC12 (stereo not given) | 30 |
| CCOC(=O)C1=C(N)n2c(s/c(=C\c3ccco3)c2=O)=C(C(=O)OCC)C1c1ccco1 (stereo not given) | 1.41 |
| Cc1cc(C)c(S(=O)(=O)N2CCCCC2)c(C)c1N(C)S(=O)(=O)c1ccc(Cl)cc1 | 13.2 |
| Nc1nc(-c2ccco2)c(-c2ccco2)s1 | 0.83 |
| Cc1noc(C)c1S(=O)(=O)Nc1ccc2c(c1)C(=O)N([C@@H](C)CO)C[C@H](C)[C@@H](CN(C)Cc1ccc(C(F)(F)F)cc1)OCCCC[C@H](C)O2 | 96 |
| CC(=O)OCCCNc1cc(Sc2nc3ccccc3s2)c2nonc2c1[N+](=O)[O-] | 53.1 |
| CN(CC(=O)Nc1ccc(F)cc1)C(=O)c1cc(-c2ccco2)nc2ccccc12 | 5.48 |
| CN(CC(=O)Nc1cccc(F)c1)C(=O)c1cccc(-n2cccc2)c1 | 8.08 |
| COC(=O)c1ccccc1NC(=O)c1noc2c1CCC2 | 26 |
| O=[N+]([O-])c1cc(/C=N\Nc2nccs2)ccc1O | 1.62 |
| Cc1cc(C(=O)CSc2nc3ccccc3c(=O)[nH]2)c(C)n1C | 31.6 |
| Cc1ccc(NC(=O)CN2C(=O)N/C(=C/c3ccco3)C2=O)cc1 | 2 |

| Compound | IC50 [µM] |
| --- | --- |
| O=[N+]([O-])c1ccc(O)c2ncccc12 | 46.5 |
| O=C(O)CCCCC1CCSS1 (stereo not given) | 7.67 |
| CC1C/C(=C/c2ccco2)C(=O)/C(=C/c2ccco2)C1 (stereo not given) | 1.89 |
| CNc1ccc(Br)cc(C(=O)/C=C/c2ccc(Cl)cc2Cl)c1=O | 9.23 |
| C=CCSC1=N/C(=C\C=C\c2ccco2)C(=O)S1 | 1.05 |
| COc1ccc(-c2nc3ccccc3n2OC(=O)N(C)C)cc1 | 42.9 |
| Cn1cccc1/C=C1\CCC/C(=C\c2cccn2C)C1=O | 3.09 |
| Cc1cc(SCC(=O)N/N=C/c2ccc(O)c(O)c2O)c(C)cc1Br | 13.3 |
| Oc1ccc(NCc2cccc(OCc3ccccc3)c2)cc1 | 2.14 |
| CCOC(=O)C1CCCN(c2ncnc3c2cnn3-c2ccc(Cl)cc2)C1 (stereo not given) | 36 |
| O=[N+]([O-])c1ccccc1S(=O)(=O)NC1CCCC1 | 12.9 |
| COC(=O)CCCC(=O)Nc1c(F)c(F)c(F)c(F)c1F | 24.3 |
| CNc1ccc(Br)cc(C(=O)/C=C/c2ccc3c(c2)OCO3)c1=O | 21.9 |
| Cc1ccc(/C=C/C(=O)Nc2cccc(S(=O)(=O)N3CCOCC3)c2)o1 | 20.9 |
| COc1ccc(Oc2nc(C)cc(C)c2C#N)cc1 | 59.3 |
| O=C1CC(c2ccco2)CC(O)=C1C=Nc1cc(Cl)ccc1Cl (stereo not given) | 4.07 |
| COc1ccc(/C=C(\NC(=O)c2ccc(OCC(C)C)cc2)C(=O)OCc2ccco2)cc1 | 32.7 |
| CN(CC(=O)Nc1c(Cl)cccc1Cl)C(=O)c1cccc(-n2cccc2)c1 | 31.3 |
| Oc1ccc(C[C@H]2NCCc3cc(O)c(O)cc32)cc1O | 9.77 |
| O=C(O)CC(Cn1cnnn1)c1ccccc1 (stereo not given) | 58.8 |
| Cc1ccc(/C=C2\SC(=S)N(c3cccnc3)C2=O)o1 | 6.87 |
| Oc1ccc(/C=N/N=C/c2ccc(O)c(O)c2)cc1O | 4.82 |

| Compound | IC50 [µM] |
| --- | --- |
| Cc1cc(NC(=O)Cc2cccs2)no1 | 3.92 |
| CCCOc1ccc(N)cc1N | 7.66 |
| Cc1c(C(=O)O)cccc1-n1c(C)cc(/C=N/Nc2ccc([N+](=O)[O-])cn2)c1C | 12.6 |
| COc1cc(-c2nnc(SCc3cc(=O)oc4cc(O)c(O)cc34)o2)cc(OC)c1OC | 8.36 |
| O=C(O)c1cccc(CSc2nnc(COc3ccccc3)o2)c1 | 88.2 |
| CCN1CCC(=NNC(=O)CC23CC4CC(CC(C4)C2)C3)CC1 | 97.5 |
| CCN(CC)c1ccc2oc(=O)c(C)nc2c1 | 2.87 |
| CC(C)c1ccc(N2C(=O)NC(=O)/C(=C\C=C\c3ccco3)C2=O)cc1 | 9.35 |
| CCOc1ccc2[nH]c(=O)c(CN(Cc3nnnn3Cc3ccco3)C3CCCCC3)cc2c1 | 4.82 |
| Cc1oc(-c2ccc(Cl)cc2)cc1-c1nn2c(-c3ccoc3C)nnc2s1 | 1.04 |
| Cc1ccc(S(=O)(=O)Cn2nnnc2C(CC(C)C)N2CCN(C)CC2)cc1 (stereo not given) | 9.85 |
| COC(=O)\C(C(C)=O)=C(/C=C/C=C/C=C/N(C)C)N(C)C | 2.76 |
| Cc1c(NC(=O)CN2CCN(c3ccc(O)cc3)CC2)c(=O)n(-c2ccccc2)n1C | 10.2 |
| COc1ccccc1-n1c(SCC(=O)NCc2ccc3c(c2)OCO3)nc2cc([N+](=O)[O-])ccc21 | 22.7 |
| O=[N+]([O-])c1ccc(N2CCN(c3ccc(Cl)nn3)CC2)c(Cl)c1 | 99.1 |
| Cc1cccc(N(C(=O)Cn2nnc3ccccc32)C(C(=O)NCc2ccco2)c2ccncc2)c1C (stereo not given) | 4.66 |
| CCCCOc1ccccc1C1NC(=O)NC(C)=C1C(=O)OCc1ccco1 (stereo not given) | 57.3 |
| CCc1ccc(S(=O)(=O)/N=C2\C=CC(=O)c3ccccc32)cc1 | 8.1 |
| CCOc1cccc(=O)c2c(C)n(C)c(C)c12 | 11.6 |
| O=S(=O)(O)c1cc(O)c2ccc(Nc3ccccc3)cc2c1 | 1.38 |
| O=C(CSc1nnc(-c2ccco2)c(-c2ccco2)n1)Nc1ccccc1 | 3.12 |
| CCc1ccccc1NC(=O)c1cccc(NC(=O)/C=C/c2ccco2)c1 | 10.8 |
